# Test results reported in ChEMBL document CHEMBL3507680, “University of Dundee, Gates Library screen for HepG2 cell viability”.
# Assay: Human HepG2 cell viability assay in 384 well format
# Format: toxicity, cell-based
# Set-up: dose 125 nL, time 70.5 hour; cytotoxicity at 70.5 h: concentration not given beside the values
# Settings: HepG2 cells, read-out: Inhibition
row,Compound,cytotoxicity at 70.5 h [%]
1,CCN(CC)S(=O)(=O)c1ccc(C(=O)NC(C)(C)C)cc1,35.7
2,CNS(=O)(=O)CC(=O)N1CCC(c2cc3ccccc3[nH]2)CC1,1.33
3,O=C(NCc1ccon1)Nc1cc(F)ccc1N1CCCCC1,0.987
4,COC(=O)c1ncccc1N1CCCC1,-2.82
5,CS(=O)(=O)NC(=O)c1ccn(-c2ccc(Cl)c(Cl)c2)n1,-3.09
6,CCS(=O)(=O)NCC(=O)N1CCC(c2cc3ccccc3[nH]2)CC1,1.52
7,CN1CCN(c2ccc(F)cc2NC(=O)NCc2ccon2)CC1,0.112
8,O=S(=O)(NC1CCCOC1)c1ccc(C(F)(F)F)nc1 (centres undefined),-1.78
9,CC(O)c1cccc(OCc2ccon2)c1 (centres undefined),-2.61
10,CN(Cc1nnnn1C1CC1)CC1COc2ccccc2O1 (centres undefined),-0.558
11,CN(C)CCN(Cc1ccc(F)cc1)C(=O)c1ccn(C)c(=O)c1,-5.2
12,COC(=O)c1cccc(C(=O)N(CCC#N)CC(C)(C)C)c1,1.22
13,c1ccc(N2CCC(OCC3CCCCO3)CC2)nc1 (centres undefined),0.314
14,Clc1ccc(N2CCC(OCC3CCCCO3)CC2)nc1 (centres undefined),-1.36
15,CC(C)n1cnnc1SCCN(C)c1ccccc1,-6.85
16,CCCOc1cccc(OCc2ccon2)c1,-7.15
17,COCCN(C)C(C)Cc1ccccc1OC (centres undefined),-11.8
18,CCOCc1ccc(NC(=O)N2CCOC3(CCC3)C2)cc1,-5.85
19,CC(NC(=O)CCCN(C)C)c1cn(-c2ccccc2)nn1 (centres undefined),20.9
20,CC(C)CCC(=O)N1CCC2(CC1)OCCO2,-4.64
21,CCCC(=O)N1CCC2(CC1)OCCO2,-2.35
22,CN(C)c1cc(CNC(=O)CC2CCCCC2)ccn1,-5.82
23,CNS(=O)(=O)c1ccc(C(=O)NCc2ccnc(OC)c2)cc1,-10
24,COc1cc(C)ccc1OCCC(=O)N1CCC(C(N)=O)C1 (centres undefined),-10.8

row,Compound,cytotoxicity at 70.5 h [%]
1,NC(=O)C(Nc1ccc(Cl)cc1)c1ccc(F)cc1 (centres undefined),-0.513
2,O=C(NCCc1coc(-c2ccc(F)cc2)n1)NCC1CCOC1 (centres undefined),20.9
3,CNS(=O)(=O)CC(=O)NC(c1cc(C)sc1C)C(C)C (centres undefined),2.55
4,Cc1cnn(Cc2ccc(NC(=O)N3CCCC3)cc2)c1,-3.9
5,CCc1nc(Cn2c(=O)c3c(C(F)(F)F)cc(C)nc3n2C)no1,0.468
6,Cc1cc(C(F)(F)F)c2c(=O)n(Cc3ccon3)n(C)c2n1,-5.27
7,CC(O)(CNC(=O)NCCc1ccc2c(c1)CCO2)c1ccccc1 (centres undefined),-0.353
8,CSc1ccc(NC(=O)Cn2cc(N)cn2)cc1,-6.5
9,O=C(C1CC(c2cccc(F)c2)=NO1)N1CCc2ccccc21 (centres undefined),-4.18
10,O=c1ccc(S(=O)(=O)N2CCCC2)cn1CC1CCCCO1 (centres undefined),-11.1
11,Cc1ccc(OCCn2cnc3oc(C)c(C(=O)O)c3c2=O)cc1,19.9
12,CCN(CC)c1nc2sc(C(=O)N3CCNC(=O)C3)cc2s1,-8.64
13,Cc1noc(C2CCCN(Cn3cc(Cl)cn3)C2)n1 (centres undefined),-1.46
14,Cc1noc(C2CCCN(Cn3cc(Br)cn3)C2)n1 (centres undefined),-8.2
15,CC(NC(=O)N1CCCN(C)CC1)c1ccc2c(c1)OCCO2 (centres undefined),-6.8
16,CN(C)c1nc2sc(C(=O)N3CCNC(=O)CC3)cc2s1,-10.2
17,O=C(C1CC(c2ccccc2)=NO1)N1CCCCc2ccccc21 (centres undefined),-7.24
18,CC(NCc1cnc(N2CCOCC2)s1)c1ccc(Cl)s1 (centres undefined),-7.8
19,Cc1ccc(N2CCCC(Nc3nn4cc(C)nc4s3)C2)nn1 (centres undefined),-9.29
20,Clc1ccc2cccnc2c1CNC1CCc2ncnn2C1 (centres undefined),-5.27
21,Cc1cc(C[S+]([O-])Cc2ccccc2F)on1 (centres undefined),-8.66
22,CSc1ccc(NC(=O)Cn2cc(NC(C)=O)cn2)cc1,-7.71
23,CN(C)c1ccc(C(=O)Nc2ccn(Cc3ccccn3)n2)cn1,14.6
24,COC(=O)CC1CSCCN1C(=O)CCc1c(C)nn(C)c1C (centres undefined),-7.68

row,Compound,cytotoxicity at 70.5 h [%]
1,CCCC(=O)Nc1cnn(CC(=O)Nc2ccc(SC)cc2)c1,-5.62
2,CC1(NC(=O)CNC(=O)C(C)(C)C)CCc2ccccc2C1 (centres undefined),-7.61
3,CC(C)COc1cncc(N(C)C2CCN(c3ncccn3)CC2)n1,-12
4,CC(C)Cn1ncc(C(=O)NS(=O)(=O)C2CCCC2)c1C1CC1,-8.4
5,CCN(C(=O)CN1CCCN(c2nc(C)ns2)CC1)C1CC1,-3.69
6,CCS(=O)(=O)N1CCCN(CCCOC)CC1,-6.15
7,Cc1cnn(C2CN(CCOc3cccc(C#N)c3)C2)c1,-5.43
8,Cn1c(SCc2noc(-c3ccsc3)n2)nnc1C1CCS(=O)(=O)C1 (centres undefined),-4.08
9,Cc1noc(C)c1C(=O)NCCc1cccs1,0.104
10,COc1ccc(CN2CCCN(c3cc(C(N)=O)ccn3)CC2)cc1,9.62
11,COc1cccc(COCC(=O)NC(C(N)=O)c2ccccc2)c1 (centres undefined),3.41
12,Cc1c(-c2ccncc2)n[nH]c1NC(=O)CCOC(C)C,-4.44
13,CNS(=O)(=O)c1ccccc1N1CCN(C(C)C(N)=O)CC1 (centres undefined),-3.93
14,CNS(=O)(=O)c1ccccc1N1CCN(C(=O)NC(C)C)CC1,-5.21
15,CC(C)N1CCC(NC(=O)NCCC(=O)NCc2ccccc2)C1 (centres undefined),10.4
16,CCc1noc(C)c1C(=O)N1CCN(c2nc(C)cc(OC)n2)CC1,5.53
17,CNS(=O)(=O)c1ccccc1N1CCN(C(C)C(=O)OC)CC1 (centres undefined),-3.28
18,CNC(=O)COc1ccccc1CNC1CCc2nc(C)nn2C1 (centres undefined),-6.32
19,CCN1CCN(C2CCN(Cc3ccc(Cl)s3)CC2)C1=O,1.3
20,CC(C)(C)C(=O)NCCC(=O)NS(=O)(=O)c1cccc(C#N)c1,15.8
21,CN1CCN(C2CCN(Cc3ccc(Cl)s3)CC2)C1=O,-0.237
22,Cc1cc(C2CCCN(C(=O)COc3ccccc3F)C2)n[nH]1 (centres undefined),12.5
23,CCCN(C(=O)c1ccc(-n2ccnn2)cc1)c1cccnc1,-3.08
24,CN(Cc1ncnn1C)C(=O)CCCn1ccc2cc(Cl)ccc21,-1.32

row,Compound,cytotoxicity at 70.5 h [%]
1,O=C(c1ccc(-n2ccnn2)cc1)N(CC1CC1)c1cccnc1,5.29
2,Cc1ccccc1CCCN1C(=O)CC2(CCSC2)C1=O (centres undefined),2.27
3,Cc1nc(CN2CCC(C(=O)N(C)C3CCC(C)CC3)CC2)cs1 (centres undefined),-3.95
4,Cc1cc2n(n1)CC(CNC1CCN(C(=O)C3CC3)CC1)CN2 (centres undefined),16.7
5,COc1ccnc(N2CCN(C(=O)c3cc(C4CC4)[nH]n3)CC2)n1,-5.93
6,CC(C)c1cc(C(=O)N2CCCN(Cc3ccccc3)CC2)n[nH]1,-5.87
7,Cc1ccc(CNC(=O)NC2CCN(CC(F)F)CC2)cc1,-4.96
8,Cc1noc(CCCC(=O)NC(C)c2nnc3n2CCCCC3)n1 (centres undefined),-1.92
9,COc1ccnc(N2CCN(C(=O)c3cscn3)CC2)n1,-2.19
10,Cc1cc2n(n1)CC(CNC1CCN(c3ccccn3)CC1)CN2 (centres undefined),-0.0737
11,Cc1nc(CN2CCC(CNC(=O)CCC3CCCC3)CC2)oc1C,-2.1
12,CC(C)(C)S(=O)(=O)CCNC(=O)c1cnc(-c2ccccc2)nc1,-0.525
13,Cc1nc(CN2CCC(CNC(=O)C3(C#N)CCCC3)CC2)oc1C,-5.03
14,CCOc1ccc(NS(=O)(=O)c2cc(C)c(C(=O)O)s2)c(C)c1,-3.91
15,O=C(NCc1cccc(-n2cncn2)c1)NCC(C1CC1)C1CC1,-5.02
16,CCC(CC)c1cc(CNC(=O)N2CCCC(C(=O)NC)C2)on1 (centres undefined),-0.471
17,Cc1cnn(CC2CN(CCS(=O)(=O)C(F)(F)F)CCO2)c1 (centres undefined),23.8
18,c1cc(CNCc2ccnc(N3CCCC3)c2)c2c(c1)OCO2,-6.8
19,CC1CN(c2cc(CNCc3cccc4c3OCCO4)ccn2)CCO1 (centres undefined),-10.3
20,COc1ccc(C(=O)O)c(OCC(=O)NC(C)c2ccc(F)cc2)c1 (centres undefined),-6.92
21,c1cc(CNCc2ccnc(N3CCOCC3)c2)c2c(c1)OCCCO2,-9.7
22,Cc1nc(CNC(=O)[C@@H]2CCCN2C(=O)OC(C)(C)C)cs1,-7.16
23,Cc1cn(CC(=O)NC2CCN(CC3CC3)CC2)c2ccccc12,-9.9
24,CC(C)(C)OC(=O)N1CCCCC1C(=O)NCc1cc[nH]n1 (centres undefined),-7.48

row,Compound,cytotoxicity at 70.5 h [%]
1,N#Cc1ccnc(N2CCN(CC(O)c3ccc(F)c(F)c3)CC2)c1 (centres undefined),-2.47
2,N#Cc1ccnc(N2CCN(CC(O)c3ccc(F)cc3)CC2)c1 (centres undefined),-0.587
3,O=C(Nc1cccc(N2CCN(CC3CC3)CC2)c1)C1CCOC1 (centres undefined),-4.69
4,Cc1cn(CC(=O)NCC(=O)NC2CC2)c2ccccc12,-0.742
5,O=C(Nc1cccc(N2CCN(CC3CC3)CC2)c1)C1CCCO1 (centres undefined),17
6,O=S(=O)(CCCN1CCOC(Cn2cccn2)C1)c1ccccc1 (centres undefined),2.06
7,Cc1cn(CC(=O)NC2CCN(C(C)C)CC2)c2ccccc12,-1.25
8,CNC(=O)CN1CCC(NC(=O)Cn2cc(C)c3ccccc32)CC1,0.492
9,Cc1cnn(CC2CN(CCCS(C)(=O)=O)CCO2)c1 (centres undefined),-0.801
10,N#Cc1ccnc(N2CCN(CC(O)c3c(F)cccc3F)CC2)c1 (centres undefined),15.3
11,O=C(NC1CCS(=O)(=O)C1)c1sccc1OC(F)F (centres undefined),0.608
12,CN1CCN(C(=O)C2CCCc3[nH]ncc32)CC1 (centres undefined),-1.9
13,Cc1ccc2c(c1)C(NCc1nnc3n1CCCCC3)CCCO2 (centres undefined),11.8
14,Cc1cnc(NC(=O)N2CCOCC2)s1,-2.62
15,Cc1cnc(NC(=O)N2CCCCCC2)s1,-4.75
16,CCN(CC(=O)NC(C)C)S(=O)(=O)N1CCCCC1C (centres undefined),-3.14
17,Cc1noc(C)c1CN1CCN(C(=O)CCn2cncn2)CC1,-6
18,CSCC(C)(O)CNC(=O)c1ccc(F)cc1Br (centres undefined),-4.95
19,CN(Cc1noc(C2CC2)n1)CC1CCN(CCO)CC1,14.4
20,CCc1c(C)[nH]c(C2(N)CCCC2)nc1=O,-2.07
21,Cc1nc(C)c(C(C)NCc2cnc(N3CCOCC3)nc2)s1 (centres undefined),19.8
22,c1cc(CNCc2ccnc(N3CCOCC3)c2)c2c(c1)OCO2,-8.43
23,COc1c(CNC2CCOc3c(Cl)cccc32)c(C)nn1C (centres undefined),12.2
